# PMC8386747, “Structure–activity relationship, in vitro and in vivo evaluation of novel dienyl sulphonyl fluorides as selective BuChE inhibitors for the treatment of Alzheimer's disease” (Journal of Enzyme Inhibition and Medicinal Chemistry, 2021)
# Where two headings read alike, the source gives them in different places.
# Legend:
# [1] = target: T1, BuChE from equine serum (Equus caballus, UniProt P81908); assay: eqBuChE inhibition assay (Ellman's method); format: biochemical; conditions: BuChE from horse serum; for IC50: mean ± SEM; for inhibition at 20 µM: read-out: BuChE % inhibition at 20 µM
# T1 construct: BuChE from equine serum (C4290-1KU; Sigma); purchased Sigma C4290-1KU; host or cells: equine serum
# Procedure: (§1) According to the Ellman’s method, assays were performed on AChE from electric eel (C3389-500UN; Sigma) and BuChE from equine serum (C4290-1KU; Sigma). The experiment was performed in 48-well plates in a final volume of 500 µL. Each well contained 0.036 U/mL of eeAChE or eqBuChE, and 0.1 M pH 8 PBS. They were pre-incubated for 20 min at different compound concentrations at 37 °C. […] The DTNB produces the yellow anion 5-thio-2-nitrobenzoic acid along with the enzymatic degradation of ACh or BuCh. Changes in absorbance were measured at 410 nm after 20 min in a PerkinElmer VICTOR Nivo reader. The IC50 values were calculated graphically from inhibition curves (log inhibitor concentration vs percent of inhibition). A control experiment was performed under the same conditions without inhibitor and the blank contained buffer, DMSO, DTNB, and substrate.
# [2] = target: T2, AChE from electric eel (Electrophorus electricus, UniProt O42275); assay: EeAChE inhibition assay (Ellman's method); format: biochemical; conditions: for inhibition at 20 µM: read-out: AChE % inhibition at 20 µM
# T2 construct: assays were performed on AChE from electric eel (C3389-500UN; Sigma); purchased Sigma C3389-500UN
# Procedure: as §1
# [3] = for BBB penetration: PAMPA-BBB class
# Procedure: (§2) The 96-well UV plate (COSTAR) was manufactured by Corning Corporation, USA, and the commercially available drugs and test compounds were initially dissolved in DMSO at a concentration of 20 mg/mL. The solution was then diluted 200-fold with PBS (pH 7.4 ± 0.1)/EtOH (70/30, v/v) solution to a final concentration of 100 µg/mL.
# (§3) The test compound was dissolved in DMSO at 5 mg/mL and diluted 200-fold with universal buffer (final concentration 25 µg/mL) to prepare the secondary stock solution; 200 µL of the secondary stock solution was added to the donor well; the acceptor plate was coated with 4 µL of 20 mg/mL dodecyl porcine polar brain, and then, 200 µL of pH 7.4 universal buffer was added to the acceptor well; the acceptor plate was carefully placed on the donor plate to form a “sandwich” and maintained for 18 h; the drug concentrations in the acceptor, donor and reference wells were determined using a UV microplate reader; the experiment was repeated three times, and the concentrations of the test compound in the donor and acceptor wells were measured using a UV plate spectral reader (PerkinElmer VICT or Nivo, Finland). In at least three independent experiments, each sample was analysed at three wavelengths in a four well.
# [4] = in vitro; conditions: PAMPA
# Procedure: as §2, §3
# [5] = PAMPA-BBB, reported data from the reference; cited from earlier work
# [6] = tested on: Aβ1-42-induced cognitive dysfunction; assay: Morris water maze in Aβ1-42-induced cognitive impairment model; format: in vivo, mouse; conditions: mice, Aβ1-42 10 µg icv; 15 mg/kg po Day 3 to Day 14
# Procedure: All experiments were performed according to the National Institutes of Health Guide for the Care and Use of Laboratory Animals. The Measures for the Care and Treatment of Laboratory Animals were approved by the Animal Care and Use Committee of Anhui Medical University. Male ICR mice were used in the animal centre of Anhui Medical University (Hefei). Male mice (18‒24 g) aged 6‒8 weeks, 10 mice per cage, room temperature 22 ± 2 °C, light/dark (12:12 h) cycle. These animals had access to food and water prior to testing. The ambient temperature and relative humidity (50%) of the room remained consistent throughout all tests. Behavioural experiments: MWM was used for cognitive function, and mice were randomly selected for behavioural experiments. Each experimental group consisted of 8‒10 mice/dose. The experimental time was from 08:00 to 14:00, and the mice were sacrificed by cervical dislocation immediately after the end of the experiment. […]. Aβ1-42 aggregation was induced by dissolving the Aβ1-42 peptide in DMSO as a stock solution of 5 mM and incubating it in saline at a final concentration of 2 mg/mL for 24 h at 37 °C.
# The behavioural study was a water maze experimental behavioural study on days 10 − 15, including a 5-day learning and memory training, and a test assessment on day 6. MWM consists of a water-filled pool (grey, circular, 1.20 m in diameter, 0.60 m in height) and a platform with adjustable height and movable position. The pool was divided into four equal quadrants (compass position: NE, NW, SE, SW) using a computerised video tracking system (SMART, version 3.0; Panlab, Spain). The pool was filled with water, generally about 48 cm below the edge, to prevent animals from jumping out, and the water temperature was maintained at 22 ± 1 °C. […] The time to reach the hidden platform (i.e. escape latency), the distance to reach the hidden platform, the distance in the target (NW) area, and the average speed were recorded. […]
# [7] = target: T3, recombinant human AChE (hAChE) (Homo sapiens, UniProt P22303); assay: hAChE inhibition assay (Ellman's assay); format: biochemical
# T3 construct: purchased Sigma C1682
# Procedure: The solution was diluted to 5 concentrations of 200, 100, 10, 1 and 0.1 µM in ethanol. Measurements were performed using 96-well plates. Buffer (40 µL), sample at a series of concentrations (10 µL), AChE (10 µL), and dibutyl succinate (20 µL) were successively added. The mixture was then incubated for 5 min at 37 °C. Then, 20 µL of ACh or BuCh were added and the reaction started. […] For the blank value, 10 µL of water was used instead of the inhibitor solution. The activity of the inhibitor was expressed as a logarithmic plot of the percentage of enzyme activity (with 100% as the reference) versus the concentration of the compound. IC50 values were determined graphically from inhibition curves (log inhibitor concentration versus percent inhibition).
# [8] = AChE from electric eel, 20 µM, na = no inhibitory activity at 20 µM
# [9] = AChE from electric eel, mean ± SEM, read-out: AChE IC50
# [10] = pH 7.4, Pe×10^-6cm/s Exp. value, PAMPA-BBB, three independent experiments
# T1 sequence (P81908 whole entry): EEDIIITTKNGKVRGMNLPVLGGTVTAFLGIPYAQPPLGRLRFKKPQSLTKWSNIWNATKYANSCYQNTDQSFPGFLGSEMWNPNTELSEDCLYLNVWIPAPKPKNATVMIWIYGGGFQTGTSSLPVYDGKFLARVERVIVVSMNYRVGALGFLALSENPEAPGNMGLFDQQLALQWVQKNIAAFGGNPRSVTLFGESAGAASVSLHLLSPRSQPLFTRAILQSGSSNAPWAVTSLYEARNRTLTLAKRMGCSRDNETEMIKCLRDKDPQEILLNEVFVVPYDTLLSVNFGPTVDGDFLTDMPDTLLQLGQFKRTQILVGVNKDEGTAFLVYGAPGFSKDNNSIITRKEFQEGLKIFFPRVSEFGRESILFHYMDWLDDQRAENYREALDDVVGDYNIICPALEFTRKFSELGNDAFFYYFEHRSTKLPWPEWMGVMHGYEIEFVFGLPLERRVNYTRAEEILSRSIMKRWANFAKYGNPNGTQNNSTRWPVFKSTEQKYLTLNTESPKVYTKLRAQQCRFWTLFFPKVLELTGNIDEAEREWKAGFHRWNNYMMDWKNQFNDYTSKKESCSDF
# T2 sequence (O42275 24-633): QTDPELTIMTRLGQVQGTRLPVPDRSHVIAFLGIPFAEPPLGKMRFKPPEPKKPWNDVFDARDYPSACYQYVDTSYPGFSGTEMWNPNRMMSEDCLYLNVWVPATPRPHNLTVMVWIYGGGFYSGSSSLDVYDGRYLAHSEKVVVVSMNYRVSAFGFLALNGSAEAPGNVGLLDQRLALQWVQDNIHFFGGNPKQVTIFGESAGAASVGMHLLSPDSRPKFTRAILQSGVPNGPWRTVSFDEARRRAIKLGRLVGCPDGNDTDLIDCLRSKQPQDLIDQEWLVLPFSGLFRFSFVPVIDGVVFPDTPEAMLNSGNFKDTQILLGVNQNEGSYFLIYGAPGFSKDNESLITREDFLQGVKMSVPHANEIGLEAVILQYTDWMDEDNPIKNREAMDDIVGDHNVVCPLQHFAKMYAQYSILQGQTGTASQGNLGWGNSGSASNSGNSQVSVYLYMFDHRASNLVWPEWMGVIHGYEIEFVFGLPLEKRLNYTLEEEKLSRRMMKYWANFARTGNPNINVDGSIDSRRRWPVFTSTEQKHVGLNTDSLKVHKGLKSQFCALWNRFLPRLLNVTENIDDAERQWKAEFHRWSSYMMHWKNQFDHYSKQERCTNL
# T3 sequence (P22303 32-614): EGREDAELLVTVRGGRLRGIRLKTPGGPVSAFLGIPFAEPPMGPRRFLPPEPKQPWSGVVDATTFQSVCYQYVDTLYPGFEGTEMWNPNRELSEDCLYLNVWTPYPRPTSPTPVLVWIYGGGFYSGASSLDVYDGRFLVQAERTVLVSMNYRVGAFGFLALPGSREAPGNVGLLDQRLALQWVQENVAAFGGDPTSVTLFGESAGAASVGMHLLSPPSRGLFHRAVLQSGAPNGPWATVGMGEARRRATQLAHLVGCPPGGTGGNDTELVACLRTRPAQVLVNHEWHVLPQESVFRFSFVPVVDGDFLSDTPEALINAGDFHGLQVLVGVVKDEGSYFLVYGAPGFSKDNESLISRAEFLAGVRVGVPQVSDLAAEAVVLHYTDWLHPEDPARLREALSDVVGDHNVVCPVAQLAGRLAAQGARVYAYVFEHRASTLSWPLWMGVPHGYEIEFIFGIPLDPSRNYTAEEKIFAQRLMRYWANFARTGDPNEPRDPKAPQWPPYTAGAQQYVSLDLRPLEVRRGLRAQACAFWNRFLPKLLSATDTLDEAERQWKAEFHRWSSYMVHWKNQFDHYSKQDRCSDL
Compound,IC50 [1] [nM],"inhibition at 20 µM [2, 8] [%]",other results
O=S(=O)(F)C(Br)=CC=Cc1ccc(Br)cc1 [Compound A4],–,–,BuChE % inhibition at 20 µM [1]: 19.2 ± 1.2%
O=S(=O)(F)C(Br)=CC=Cc1cccs1 [Compound A13],320 ± 60,–,–
O=S(=O)(F)/C(I)=C/C=C/c1ccc(Cl)cc1 [Compound C3],3070 ± 1720,38.9 ± 2.5,–
COc1ccc(/C(=C\C=C\c2ccccc2)S(=O)(=O)F)cc1 [Compound D3],–,47.9 ± 0.4,inhibition at 20 µM [1]: 33.7 ± 1.8%
O=S(=O)(F)/C(=C/C=C/c1ccccc1)c1ccc2ccccc2c1 [Compound D7],–,42.3 ± 0.5,inhibition at 20 µM [1]: 7.4 ± 0.2%
CCc1ccc(/C(=C\C=C\c2ccccc2)S(=O)(=O)F)cc1 [Compound D1],1180 ± 330,25.1 ± 1.6,–
O=S(=O)(F)/C(C#Cc1ccsc1)=C/C=C/c1ccccc1 [Compound D13],–,14.7 ± 0.2,inhibition at 20 µM [1]: 31.3 ± 0.4%
O=S(=O)(F)/C(C#CC1CC1)=C/C=C/c1ccccc1 [Compound D14],430 ± 80,–,"IC50 [2, 9]: 1540 ± 320 nM"
O=S(=O)(F)C(Br)=CC=CC=Cc1ccccc1 [Compound A20],12500,–,inhibition at 20 µM [2]: 18.7 ± 2.4%
"CC(=O)[C@H]1CC[C@H]2[C@@H]3CCC4=CC(=O)CC[C@]4(C)[C@H]3CC[C@]12C [Progesterone, reference compound]",–,–,"BBB penetration [3]: CNS+ (“CNS +” (high BBB permeation): Pe (× 10^‒6 cm/s) >4.0); Papp [4, 10]: 18.2 ×10⁻⁶ cm/s"
O=S(=O)(F)/C(C#Cc1cccc(Br)c1)=C/C=C/c1ccccc1 [Compound D8],4560 ± 2650,–,"IC50 [2, 9]: 2730 ± 100 nM"
O=S(=O)(F)/C(C#Cc1ccccc1F)=C/C=C/c1ccccc1 [Compound D9],–,47.7 ± 1.9,inhibition at 20 µM [1]: 31.7 ± 1%
Cc1ccc(S(=O)(=O)n2cc(C=CC=C(Br)S(=O)(=O)F)c3ccccc32)cc1 [Compound A19],–,46.2 ± 0.4,inhibition at 20 µM [1]: 46 ± 1.6%
COc1ccc(C=CC=C(Br)S(=O)(=O)F)cc1 [Compound A6],310 ± 40,–,–
COc1ccc(/C=C/C=C(\Cl)S(=O)(=O)F)cc1 [Compound B4],540 ± 190,30.1 ± 3.8,–
"CN1C(C(=O)Nc2ccccn2)=C(O)c2ccccc2S1(=O)=O [Piroxicam, reference compound]",–,–,"BBB penetration [3]: CNS+ (“CNS +” (high BBB permeation): Pe (× 10^‒6 cm/s) >4.0); Pe×10^-6cm/s BibL. value [5]: 9.3 ×10^-6cm/s; Papp [4, 10]: 9.87 ×10⁻⁶ cm/s"
O=S(=O)(F)C(Br)=CC=Cc1ccc(Cl)cc1 [Compound A3],–,–,"AChE % inhibition at 20 µM [2, 8]: 33.9 ± 0.9%; BuChE % inhibition at 20 µM [1]: 42.2 ± 2.1%"
"O=S(=O)(F)C(Br)=CC=Cc1ccccc1 [Compound A1, δ-phenyl-α-Br-dienyl sulphonyl fluoride]",82 ± 7,–,–
COc1cccc(C=CC=C(Br)S(=O)(=O)F)c1 [Compound A16],300 ± 40,35.9 ± 1.4,–
O=S(=O)(F)/C(I)=C/C=C/c1ccc(F)cc1 [Compound C2],450 ± 30,17 ± 1.7,–
Cc1ccc(C=CC=C(Br)S(=O)(=O)F)cc1 [Compound A5],1720 ± 340,–,–
O=S(=O)(F)/C(C#Cc1ccccc1)=C/C=C/c1ccccc1 [Compound D11],–,30.4 ± 0.1,inhibition at 20 µM [1]: 24.3 ± 0.4%
"O=S(=O)(F)/C(I)=C/C=C/c1ccccc1 [Compound C1, δ-phenyl-α-I-dienyl sulphonyl fluoride]",1760 ± 620,23.4 ± 2.8,–
Cc1ccc(C#C/C(=C\C=C\c2ccccc2)S(=O)(=O)F)cc1 [Compound D12],–,43.5 ± 4,inhibition at 20 µM [1]: 34.7 ± 0.1%

Compound,IC50 [1] [nM],"inhibition at 20 µM [2, 8] [%]",other results
O=S(=O)(F)C(Br)=CC=Cc1ccc(F)cc1 [Compound A2],430 ± 10,–,–
O=[N+]([O-])c1ccccc1C=CC=C(Br)S(=O)(=O)F [Compound A11],270 ± 150,–,"IC50 [2, 9]: 150 ± 10 nM"
O=S(=O)(F)/C(I)=C/C=C/c1cccc(C(F)(F)F)c1 [Compound C6],500 ± 40,24 ± 6,–
O=S(=O)(F)/C(Cl)=C/C=C/c1ccccc1 [Compound B1],440 ± 40,35.9 ± 1.4,–
"COc1cc2c(cc1OC)C(=O)C(CC1CCN(Cc3ccccc3)CC1)C2 (centres unmarked) [Donepezil, donepezil, reference compound]",–,–,effect on Aβ1-42-induced cognitive dysfunction (MWM) [6]: significantly improved
O=S(=O)(F)/C(=C/C=C/c1ccccc1)c1ccc(Oc2ccccc2)cc1 [Compound D4],–,36.7 ± 2.8,inhibition at 20 µM [1]: 41.2 ± 1.1%
O=S(=O)(F)/C(Cl)=C/C=C/c1cccc(C(F)(F)F)c1 [Compound B6],500 ± 210,26.8 ± 2.7,–
O=S(=O)(F)C(Br)=CC=Cc1ccc(-c2ccccc2)cc1 [Compound A7],–,11.9 ± 0.5,inhibition at 20 µM [1]: 45.2 ± 2%
O=S(=O)(F)C(Br)=CC=Cc1ccccc1Br [Compound A8],440 ± 180,–,"IC50 [2, 9]: 107 ± 2 nM; BBB penetration [3]: CNS+ (“CNS +” (high BBB permeation): Pe (× 10^‒6 cm/s) >4.0); Pe×10^-6cm/s Exp. value ([3]; PAMPA-BBB, three independent experiments): 10.7 ×10^-6cm/s; Papp ([4]; pH 7.4, Pe, PAMPA-BBB): 10.7 ×10⁻⁶ cm/s"
"Clc1cccc(Cl)c1N=C1NCCN1 [Clonidine, reference compound]",–,–,"Pe×10^-6cm/s BibL. value [5]: 5.3 ×10^-6cm/s; Papp ([4]; pH 7.4, Pe×10^-6cm/s Exp. value): 7.85 ×10⁻⁶ cm/s"
O=S(=O)(F)C(Br)=CC=Cc1cccc(C(F)(F)F)c1 [Compound A17],430 ± 30,12.1 ± 0.7,–
CSc1ccc(/C(=C\C=C\c2ccccc2)S(=O)(=O)F)cc1 [Compound D2],–,25.5 ± 0.4,inhibition at 20 µM [1]: 28.2 ± 1.89%
O=S(=O)(F)/C(I)=C/C=C/c1ccc(Br)cc1 [Compound C4],570 ± 30,10.5 ± 3.6,–
O=S(=O)(F)/C(=C/C=C/c1ccccc1)c1ccc(Br)cc1 [Compound D5],–,29 ± 3.4,inhibition at 20 µM [1]: 30.5 ± 0.9%
COc1ccccc1/C=C/C=C(\Cl)S(=O)(=O)F [Compound B5],130 ± 10,34.2 ± 0.4,–
O=S(=O)(F)C(Br)=CC=Cc1ccc(Cl)nc1 [Compound A18],–,–,IC50 [2]: 79 ± 2 nM; inhibition at 20 µM [7]: 14.3 ± 0.9%; inhibition at 20 µM [1]: 42.8 ± 3.6%
Cc1ccccc1C=CC=C(Br)S(=O)(=O)F [Compound A9],300 ± 110,23.2 ± 4,–
O=S(=O)(F)/C(Cl)=C/C=C/c1ccc(F)cc1 [Compound B2],510 ± 10,18.7 ± 1.7,–
O=S(=O)(F)C(Br)=CC=Cc1cccc(Cl)c1 [Compound A14],110 ± 20,17.9 ± 2,–
O=C(Oc1ccc(/C(=C\C=C\c2ccccc2)S(=O)(=O)F)cc1)c1ccccc1 [Compound D6],–,18.7 ± 2.1,inhibition at 20 µM [1]: 29.7 ± 3.8%
Cc1cccc(C=CC=C(Br)S(=O)(=O)F)c1 [Compound A15],600 ± 120,–,–
O=S(=O)(F)/C(C#Cc1ccc(Br)cc1)=C/C=C/c1ccccc1 [Compound D10],–,36.9 ± 1.2,inhibition at 20 µM [1]: 22.6 ± 0.7%
O=S(=O)(F)C(Br)=CC=Cc1ccc2ccccc2c1 [Compound A12],2910 ± 260,–,–
COc1ccccc1/C=C/C=C(\I)S(=O)(=O)F [Compound C5],190 ± 40,39.5 ± 0.3,–
